Laboratory results reported in patent US11465965B2, “Double-headed protease inhibitor” (UBE INDUSTRIES, LTD., priority 2017, dated 2022).
Counter-ions that a name gives are not always drawn. Like-named read-outs stand apart in the source and are kept apart here.

Tests used:
DIO mouse = experiment: Anti-obesity effect test using DIO mouse; format: in vivo; details: 336 h, DIO mice, vs vehicle group, read-out: Weight loss rate; for inhibition in vivo at 30 mg/kg: oral 30 mg/kg once daily for 2 weeks; for inhibition in vivo at 100 mg/kg: oral 100 mg/kg once daily for 2 weeks
Experimental: (Test Example 4): Anti-Obesity Effect Test Using DIO Mouse
Diet-induced obesity (DIO) mice (D-12492 diet, male, C57BL-DIO, 26 to 28-week old) were orally administered with a 0.5 W/V % methylcellulose suspension comprising each test compound (Compound administration group, 5 or 6 mice/group) or a 0.5 W/V % methylcellulose suspension (Compound non-administration group (Vehicle group), 6 mice/group) once daily for 2 weeks. Weight loss rate was calculated by the following equation. Weight loss rate (%) of each Compound administration group−(1−average weight at the last day of the test of each Compound administration group/average weight at the last day of the test of Vehicle group)×100

[1] = Rat pharmacokinetic (PK) test (plasma concentration after oral administration); details: male, SD
[2] = biological target: T1, Human recombinant enteropeptidase (Homo sapiens, UniProt P98073); experiment: Human enteropeptidase inhibition test; format: biochemical; details: read-out: Inhibition rate (enteropeptidase); for inhibition at 0.001 µM: compound concentration 1 nM
T1 construct: purchased BIO Vision Inc. 7529-50
Experimental: (Test Example 1): Human Enteropeptidase Inhibition Test
Human recombinant enteropeptidase (manufactured by BIO Vision Inc., catalog no.: 7529-50) was diluted with an assay buffer (50 mM tricine (pH8.0), 0.01 W/V % Tween 20, 10 mM CaCl2) to prepare an […] enzyme solution. Then, 5FAM-Abu-Gly-Asp-Asp-Lys-Ile-Val-Gly-Gly-Lys (CPQ2)-Lys-Lys-NH2 (manufactured by CHINESE PEPTIDE COMPANY, purity: 94.5) was diluted with the assay buffer to prepare a 1.5 μM substrate solution. Each test compound was dissolved into DMSO, then diluted with the assay buffer 100 times, and further appropriately diluted with an assay buffer comprising 1% DMSO to prepare each compound solution. 10 μL of the compound solution, 15 μL of the assay buffer, and 50 μL of the substrate solution were added to a 96 well black plate (manufactured by Thermo Fisher Scientific Inc., code no.: 9502867), mixed, then 25 μL of the enzyme solution was added thereto, and mixed to start the reaction. Fluorescence intensities at excitation wavelength 485 nm and fluorescence wavelength 535 nm were measured by using a fluorescence plate reader (Flex station 3) (Test compound addition group). Also, the same reaction as described above except for not adding each test compound was carried out (Test compound non-addition group). Additionally, the same reaction as described above except for not adding each test compound and the enzyme was carried out (Control group). Inhibition rate was calculated by the following equation using fluorescence intensity after 20 minutes of reaction start. Inhibition rate (%)=(1−(fluorescence intensity of Test compound addition group−fluorescence intensity of Control group)÷(fluorescence intensity of Test compound non-addition group−fluorescence intensity of Control group))×100

[3] = biological target: T2, Human recombinant trypsin (Homo sapiens, UniProt P07477); experiment: Human trypsin inhibition test; format: biochemical; details: 20 minutes after reaction start, read-out: Inhibition rate (trypsin); for inhibition at 0.001 µM: compound concentration 1 nM; for inhibition at 0.01 µM: compound concentration 10 nM; for inhibition at 0.1 µM: compound concentration 100 nM
T2 construct: purchased Wako Pure Chemical Industries, Ltd. 206-17171
Experimental: (Test Example 2): Human Trypsin Inhibition Test
Human recombinant trypsin (manufactured by Wako Pure Chemical Industries, Ltd., code no.: 206-17171) was diluted with an assay buffer (0.1 M Tris-HCl (pH8.0), 0.15 M NaCl, 10 mM CaCl2, 0.05% Brij35) to prepare a 10 ng/mL enzyme solution. Then, Boc-Phe-Ser-Arg-MCA (manufactured by PEPTIDE INSTITUTE, INC., code no.: 3107-v) was diluted with the assay buffer to prepare a 40 μM substrate solution. Each test compound was dissolved into DMSO, then diluted with the assay buffer 100 times, and further appropriately diluted with an assay buffer comprising 1% DMSO to prepare each compound solution. 10 μL of the compound solution, 15 μL of the assay buffer, and 50 μL of the substrate solution were added to a 96 well black plate (manufactured by Thermo Fisher Scientific Inc., code no.: 9502867), mixed, and then 25 μL of the enzyme solution was added thereto, and mixed to start the reaction. Fluorescence intensities at excitation wavelength 355 nm and fluorescence wavelength of 460 nm were measured by using a fluorescence plate reader (Flex station 3) (Test compound addition group). Also, the same reaction as described above except for not adding each test compound was carried out (Test compound non-addition group). Additionally, the same reaction as described above except for not adding each test compound and the enzyme was carried out (Control group). Inhibition rate was calculated by the following equation using fluorescence intensity after 20 minutes of reaction start. Inhibition rate (%)=(1−(fluorescence intensity of Test compound addition group−fluorescence intensity of Control group)[…](fluorescence intensity of Test compound non-addition group−fluorescence intensity of Control group))×100

[4] = 20 minutes after reaction start
[5] = compound concentration 10 nM, 20 minutes after reaction start
[6] = compound concentration 100 nM, 20 minutes after reaction start

T1 sequence (P98073 whole entry): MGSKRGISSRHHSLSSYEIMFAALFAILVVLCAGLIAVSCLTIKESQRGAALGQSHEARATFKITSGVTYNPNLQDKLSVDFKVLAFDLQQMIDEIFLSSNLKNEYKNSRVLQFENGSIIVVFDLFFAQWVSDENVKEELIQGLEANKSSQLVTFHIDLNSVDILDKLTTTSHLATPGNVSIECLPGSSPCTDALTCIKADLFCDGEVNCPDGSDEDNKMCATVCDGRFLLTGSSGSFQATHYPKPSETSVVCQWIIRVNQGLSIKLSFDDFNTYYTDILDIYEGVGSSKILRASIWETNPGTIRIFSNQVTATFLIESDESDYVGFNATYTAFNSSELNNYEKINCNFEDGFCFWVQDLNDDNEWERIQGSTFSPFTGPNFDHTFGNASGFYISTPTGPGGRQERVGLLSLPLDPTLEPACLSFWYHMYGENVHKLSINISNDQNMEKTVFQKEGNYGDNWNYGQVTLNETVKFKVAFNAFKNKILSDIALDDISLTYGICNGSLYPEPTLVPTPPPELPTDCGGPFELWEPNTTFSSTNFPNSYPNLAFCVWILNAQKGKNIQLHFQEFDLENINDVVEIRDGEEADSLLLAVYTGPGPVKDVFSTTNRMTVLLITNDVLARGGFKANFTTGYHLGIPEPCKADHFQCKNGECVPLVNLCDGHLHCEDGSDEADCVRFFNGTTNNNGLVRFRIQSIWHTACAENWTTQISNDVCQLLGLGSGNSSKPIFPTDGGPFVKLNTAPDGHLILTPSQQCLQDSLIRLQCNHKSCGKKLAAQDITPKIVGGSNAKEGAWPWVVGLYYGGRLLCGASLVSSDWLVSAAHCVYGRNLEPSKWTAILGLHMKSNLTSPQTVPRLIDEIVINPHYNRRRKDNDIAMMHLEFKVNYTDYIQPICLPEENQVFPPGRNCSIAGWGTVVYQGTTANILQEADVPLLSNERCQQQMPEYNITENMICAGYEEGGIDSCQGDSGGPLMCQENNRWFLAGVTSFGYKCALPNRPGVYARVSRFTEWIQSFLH

| Structure (SMILES) | AUC ([1]; 10 mg/kg) | inhibition at 0.001 µM [2, 4] | inhibition at 0.01 µM [2, 5] | inhibition at 0.1 µM [2, 6] | inhibition at 0.001 µM [3] | inhibition at 0.01 µM [3] | inhibition at 0.1 µM [3] | inhibition in vivo at 30 mg/kg (DIO mouse) | inhibition in vivo at 100 mg/kg (DIO mouse) | AUC ([1]; 9 mg/kg) | inhibition at 0.01 µM [2] | inhibition at 0.1 µM [2] | inhibition in vivo at 90 mg/kg (DIO mouse; oral 90 mg/kg once daily for 2 weeks) |
| --- | --- | --- | --- | --- | --- | --- | --- | --- | --- | --- | --- | --- | --- |
| N=C(N)Nc1ccc(C(=O)Oc2ccc(CNS(=O)(=O)N(CCOCCOCCN([C@@H](CC(=O)O)C(=O)O)S(=O)(=O)NCc3ccc(OC(=O)c4ccc(NC(=N)N)cc4)cc3)[C@@H](CC(=O)O)C(=O)O)cc2)cc1 [2-(c)] | ≤ 0.1 µg·h/mL |  |  |  |  |  |  | ≥ 4% |  |  |  |  |  |
| Cl.N=C(N)Nc1ccc(C(=O)Oc2ccc(CNS(=O)(=O)N(CCOCCOCCOCCOCCOCCN([C@@H](CC(=O)O)C(=O)O)S(=O)(=O)NCc3ccc(OC(=O)c4ccc(NC(=N)N)cc4)cc3)[C@@H](CC(=O)O)C(=O)O)cc2)cc1 [5-(c), (2S,22S)-3,21-bis(N-(4-((4-guanidinobenzoyl)oxy)benzyl)sulfamoyl)-6,9,12,15,18-pentaoxa-3,21-diazatricosane-1,2,22,23-tetracarboxylic acid hydrochloride] | ≤ 0.1 µg·h/mL |  |  |  |  |  |  |  | ≥ 4% |  |  |  |  |
| Cl.N=C(N)Nc1ccc(C(=O)Oc2ccc(CNS(=O)(=O)N(CCOCCOCCOCCOCCOCCOCCN([C@@H](CC(=O)O)C(=O)O)S(=O)(=O)NCc3ccc(OC(=O)c4ccc(NC(=N)N)cc4)cc3)[C@@H](CC(=O)O)C(=O)O)cc2)cc1 [6-(c), (2S,25S)-3,24-bis(N-(4-((4-guanidinobenzoyl)oxy)benzyl)sulfamoyl)-6,9,12,15,18,21-hexaoxa-3,24-diazahexacosane-1,2,25,26-tetracarboxylic acid hydrochloride] | ≤ 0.1 µg·h/mL |  |  |  |  |  |  |  | ≥ 4% |  |  |  |  |
| N=C(N)Nc1ccc(C(=O)Oc2ccc(COC(=O)N(Cc3cccc(C(=O)O)c3)[C@@H](CC(=O)O)C(=O)NCCOCCOCCOCCOCCNC(=O)[C@H](CC(=O)O)N(Cc3cccc(C(=O)O)c3)C(=O)OCc3ccc(OC(=O)c4ccc(NC(=N)N)cc4)cc3)cc2)cc1 [16-(b), (3S,22S)-3,22-bis((3-carboxybenzyl) (((4-(14-guanidinobenzoyl)oxy)benzyl)oxy)carbonyl)amino)-4,21-dioxo-8,11,14,17-tetraoxa-5,20-diazatetracosane-1,24-dioic acid trifluoroacetate] |  |  |  |  |  | ≥ 50% | ≥ 50% |  |  | ≤ 0.1 µg·h/mL | ≥ 50% | ≥ 50% |  |
| N=C(N)Nc1ccc(C(=O)Oc2ccc(CNS(=O)(=O)N(Cc3cccc(C(=O)NCCOCCOCCOCCOCCNC(=O)c4cccc(CN([C@@H](CC(=O)O)C(=O)O)S(=O)(=O)NCc5ccc(OC(=O)c6ccc(NC(=N)N)cc6)cc5)c4)c3)[C@@H](CC(=O)O)C(=O)O)cc2)cc1 [18-(b), (2S,2′S)-2,2′-((((5,8,11,14-tetraoxa-2,17-diazaoctadecane-1,18-dioyl)bis(3,1-phenylene))bis(methylene))bis(N-(4-((4-guanidinobenzoyl)oxy)benzyl)sulfamoyl)azanediyl))disuccinic acid trifluoroacetate] |  |  |  |  | ≥ 50% | ≥ 50% | ≥ 50% |  |  | ≤ 0.1 µg·h/mL | ≥ 50% | ≥ 50% | ≥ 4% |

Continued, in another order:

| AUC ([1]; 10 mg/kg) | inhibition at 0.001 µM [2, 4] | inhibition at 0.01 µM [2, 5] | inhibition at 0.1 µM [2, 6] | inhibition at 0.001 µM [3] | inhibition at 0.01 µM [3] | inhibition at 0.1 µM [3] | Structure (SMILES) | inhibition in vivo at 30 mg/kg (DIO mouse) | inhibition in vivo at 100 mg/kg (DIO mouse) | AUC ([1]; 9 mg/kg) | inhibition at 0.01 µM [2] | inhibition at 0.1 µM [2] | inhibition in vivo at 90 mg/kg (DIO mouse; oral 90 mg/kg once daily for 2 weeks) |
| --- | --- | --- | --- | --- | --- | --- | --- | --- | --- | --- | --- | --- | --- |
| ≤ 0.1 µg·h/mL | ≥ 50% | ≥ 50% | ≥ 50% | ≥ 50% | ≥ 50% | ≥ 50% | N=C(N)Nc1ccc(C(=O)Oc2ccc(CNS(=O)(=O)N(CCCCN([C@@H](CC(=O)O)C(=O)O)S(=O)(=O)NCc3ccc(OC(=O)c4ccc(NC(=N)N)cc4)cc3)[C@@H](CC(=O)O)C(=O)O)cc2)cc1 [8-(b), (2S,2′S)-2,2′-(butane-1,4-diylbis((N-(4-((4-guanidinobenzoyl)oxy)benzyl)sulfamoyl)azanediyl))disuccinic acid trifluoroacetate] |  | ≥ 4% |  |  |  |  |
|  | ≥ 50% | ≥ 50% | ≥ 50% |  | ≥ 50% | ≥ 50% | N=C(N)Nc1ccc(C(=O)Oc2ccc(COC(=O)N(CC(=O)O)[C@@H](CC(=O)O)C(=O)N[C@@H](CC(=O)O)C(=O)NCCOCCOCCOCCOCCNC(=O)[C@H](CC(=O)O)NC(=O)[C@H](CC(=O)O)N(CC(=O)O)C(=O)OCc3ccc(OC(=O)c4ccc(NC(=N)N)cc4)cc3)cc2)cc1 [15-(b), (4S,7S,26S,29)-4,7,26,29-tetrakis(carboxymethyl)-3,30-bis((4-((4-guanidinobenzoyl)oxy)benzyl)oxy)carbonyl)-5,8,25,28-tetraoxo-12,15,18,21-tetraoxa-3,6,9,24,27,30-hexaazadotriacontane-1,32-dioic acid trifluoroacetate] |  |  | ≤ 0.1 µg·h/mL |  |  |  |
| ≤ 0.1 µg·h/mL | ≥ 50% | ≥ 50% | ≥ 50% | ≥ 50% | ≥ 50% | ≥ 50% | N=C(N)Nc1ccc2c(c1)CCCOc1c(cccc1C(=O)N(CCOCCOCCN(C(=O)c1cccc3c1OCCCc1cc(NC(=N)N)ccc1C(=O)O3)C(CC(=O)O)C(=O)O)C(CC(=O)O)C(=O)O)OC2=O (centres unmarked) [19-(b), 3,12-bis(10-guanidino-13-oxo-6,7,8,13-tetrahydrodibenzo[b,f][1,4]dioxecin-4-carbonyl)-6,9-dioxa-3,12-diazatetradecane-1,2,13,14-tetracarboxylic acid trifluoroacetate] | ≥ 4% |  |  |  |  |  |
| ≤ 0.1 µg·h/mL | ≥ 50% | ≥ 50% | ≥ 50% | ≥ 50% | ≥ 50% | ≥ 50% | N=C(N)Nc1ccc(C(=O)Oc2cccc(C(=O)N(CCOCCN(C(=O)c3cccc(OC(=O)c4ccc(NC(=N)N)cc4)c3)[C@@H](CC(=O)O)C(=O)O)[C@@H](CC(=O)O)C(=O)O)c2)cc1 [30-(a)] |  |  |  |  |  |  |
